Laboratory results taken from article PMC10054362, “Anti–Zika Virus Activity and Isolation of Flavonoids from Ethanol Extracts of Curatella americana L. Leaves” (Molecules, 2023).
Values after ≈ are worked out from the molar mass of the structure shown. Values joined by “and” are separate entries in the source; they are usually repeats but may differ in a detail not shown here. Equal entries are not always repeated. Where two headings read alike, the source gives them in different places.

Tests used:
[1] = Cytotoxicity evaluation by MTT assay in MRC-5 cells; type: cell-based, human; settings: human
Procedure: (§1) The cytotoxicity of ethanolic extracts of stems, leaves, fractions, and substances isolated from the C. americana species was evaluated by the colorimetric MTT method in Vero cell lines (derived from African green monkey kidneys) and MRC-5 (derived from normal human lung tissue). The results of CC50 are described in Table 2.
(§2) Cell suspensions (Vero and MRC-5) were distributed in 96-well microplates containing 6.0 × 10^4 cells/well. The plates were incubated in a humidified 5% CO2 atmosphere at 37 °C for 24 h. Samples solubilized in dimethyl sulfoxide (DMSO) were diluted in culture medium supplemented with 1% SFB [48, 49]. Substance dilutions ranged from 800 to 0.125 µg/mL. After the formation of the cell monolayer on the surface of the wells, the culture medium was removed, and 100 μL of diluted sample solutions along with 100 μL of 1% SFB-enriched culture medium were added, and the plates were incubated under the same atmospheric condition. Seventy-two hours after the addition of samples, the culture medium was removed, and 28.0 μL of MTT solution (2.0 mg/mL in PBS) was added to each well, and the plates were incubated again for 120 min. At the end of this period, 132 μL of DMSO was added to all wells, and the plates were shaken on a plate shaker for 15 min to dissolve the formed formazan. Formazan quantification obtained by reducing tetrazolium salt in viable cells was performed on a Victor^TM X3 microplate reader® (PerkinElmer, Waltham, MA, USA) using the WorkOut 2.5 software at 490 nm. Cell multiplication was compared with cell control. Cell toxicity was expressed in terms of 50% cytotoxic concentration (CC50). The cytotoxic percentage was calculated as [(A-B)/A] × 100, where A and B are the optical densities at 490 nm (OD490) from the wells where untreated (A) and treated (B) cells are present, respectively.
(§3) Data from cytotoxicity and antiviral assays were evaluated according to their means and standard deviations. The cytotoxic concentration at 50% and the effective concentration at 50% were determined compared with the control obtained from nonlinear regression. […]

[2] = Cytotoxicity evaluation by MTT assay in Vero cells; type: cell-based, African green monkey; settings: African green monkey
Procedure: (§4) The cytotoxicity of ethanolic extracts of stems, leaves, fractions, and substances isolated from the C. americana species was evaluated by the colorimetric MTT method in Vero cell lines (derived from African green monkey kidneys) and MRC-5 (derived from normal human lung tissue).
as §2
(§5) Data from cytotoxicity and antiviral assays were evaluated according to their means and standard deviations. […] These analyses were performed using the GraphPad Prism 5.04 statistical package® (GraphPad Software, Boston, MA, USA).

Zika virus [3] = experiment: Screening for anti-Zika virus activity by MTT colorimetric technique in infected Vero cells; type: cell-based; settings: for EC50: ZIKV-infected Vero cells, MTT; for SI Vero: ratio of CC50 (Vero) to EC50
Procedure: After the determination of optimal noncytotoxic use concentrations, assays were performed, treating ZIKV-infected Vero cells with eight concentrations from the noncytotoxic concentrations for each sample. The results of the 50% effective concentration (EC50—concentration of the substance capable of reducing the viral cytopathic effect by 50%) and selectivity index (SI) are described in Table 2.
It was performed according to the methodology described by Brandão et al.. Sample stock solutions were prepared in DMSO (dimethyl sulfoxide) and evaluated at noncytotoxic concentrations. Vero cell monolayers were cultured in 96-well plates (6 × 10^4 cells per well). After 24 h of incubation in 5% CO2 at 37 °C, the culture medium (DMEM 5% SFB) was removed, and 100.0 μL of sample dilutions were added to each well along with 100.0 μL of the viral suspension. Then, the cultures were incubated in a humid atmosphere containing 5% CO2 at 37 °C for 72 h. Cell viability was assessed by the MTT colorimetric technique. The supernatant was removed, and then 28.0 μL of an MTT solution (2.0 mg/mL in PBS) was added to each well. The plates were incubated for 2 h at 37 °C, and after this incubation time, 132.0 μL DMSO was added to each well to dissolve the formazan crystals. The plates were stirred for 15 min (Shaker New Brunswick Scientific C24), and the optical density was determined at 490 nm (OD490) in a microplate reader.
The effective concentration that has 50% antiviral effect, or 50% effective concentration (EC50), is expressed as the concentration that promotes the protection of 50% of treated cells from destruction caused by the virus. The percentage of protection was calculated as [(AB)/CB)] × 100, where A, B, and C are the OD490 of the wells, in which are present treated and infected (A), untreated and infected (B), and untreated and non-infected cells (C), respectively.
Data from cytotoxicity and antiviral assays were evaluated according to their means and standard deviations. The cytotoxic concentration at 50% and the effective concentration at 50% were determined compared with the control obtained from nonlinear regression. These analyses were performed using the GraphPad Prism 5.04 statistical package® (GraphPad Software, Boston, MA, USA).

Zika virus [4] = experiment: In vitro cytopathic effect inhibition assay in ZIKV-infected Vero cell monolayer; type: cell-based; settings: Vero cells, MOI = 1, treated after infection, quercetin 20 µg/mL, leaf extract 85 µg/mL, photographed after 48 h
Procedure: This can be seen by the destruction and morphological alterations of the cells, such as rounding of cells, formation of lumps, and changes in cell refringence, especially when compared with the uninfected and untreated cell monolayer (Figure 4A).
Figure 4 Antiviral effect against Zika virus in Vero cells treated with ethanol extract of leaves and quercetin. Vero cells were infected with ZIKV, treated with ethanol extract of leaves/quercetin, and photographed after 48 h of infection. (A) Uninfected and untreated cells, (B) infected cells, (C) cells uninfected and treated with ethanol extract of leaves (85 µg/mL), (D) cells infected and treated with ethanol extract of leaves (85 µg/mL), (E) cells uninfected and treated with quercetin (20 µg/mL), (F) cells infected and treated with quercetin (20 µg/mL). Magnification, 100x.
In order to confirm the anti-ZIKV activity observed in the antiviral MTT assay, the Vero cell monolayer (9.5 × 10^6 cells per well) was infected by viral suspensions with titers of 1.0 × 10^7 TCID50/mL, (MOI = 1), Zika virus, during 1 h for the viral adsorption. Afterwards, the viral suspension was removed and the wells were washed with PBS. Then, the wells were treated with the active concentration of the compound (20 μg/mL) and ethanolic extract of leaves of C. americana (85 μg/mL). […]

MRC-5 cells = experiment: Cytotoxicity evaluation by MTT assay in MRC-5 cells; type: cell-based, human; settings: MTT, 72 h, n = 3
Procedure: as §1, §2, §3

Vero cells = experiment: Cytotoxicity evaluation by MTT assay in Vero cells; type: cell-based, African green monkey; settings: MTT, 72 h, n = 3
Procedure: as §4, §2, §5

[5] = Zika virus, 72 h, n = 3, read-out: EC50 (converted)

With `O=c1c(O[C@@H]2O[C@H](CO)[C@@H](O)[C@H](O)[C@H]2O)c(-c2ccc(O)c(O)c2)oc2cc(O)cc(O)c12` [Quercetin-3-O-glucoside] the CC50 at 72 h [1] was > 100 µg/mL and > 216 µM, the CC50 at 72 h [2] was > 100 µg/mL and > 216 µM and the EC50 (Zika virus [3]; 72 h, n = 3) was “Inactive”. For the same compound, the EC50 (Zika virus [3]; [5]) was over 100 µg/mL.
In the case of `O=c1c(O)c(-c2ccc(O)c(O)c2)oc2cc(O)cc(O)c12` [Quercetin], the “protection of ZIKV-infected cell monolayer from viral cytopathic effect” value (Zika virus [4]) is reported as “protect the cells from a virus infection”, the CC50 at 72 h ([2]; MTT, 72 h, n = 3, read-out: CC50 Vero (converted)) is reported as 71.3 µg/mL and 236 µM and the EC50 (Zika virus [3]; [5]) is reported as 18.6 µg/mL and 61.6 µM. The EC50 (Zika virus [3]; Zika virus, read-out: EC50, inhibition of the viral cytopathic effect (abstract, unit inferred)) was 18.6 ± 2.8 µg/mL (≈ 61.5 µM) and the “SI Vero” value (Zika virus [3]) was 3.8.
In the case of `NC(=O)c1ncn([C@@H]2O[C@H](CO)[C@@H](O)[C@H]2O)n1` [Ribavirin, reference compound], the CC50 at 72 h ([2]; Vero cells, MTT, 72 h, n = 3, read-out: CC50 Vero (converted)) is reported as 370.4 ± 1.2 µg/mL (≈ 1520 µM) and the EC50 (Zika virus [3]; [5]) is reported as 94.5 µg/mL and 387 µM.
For Quercetin-3-O-hexosylgallate, the CC50 (MRC-5 cells) was over 162 µM, the “CC50 MRC-5” value (MRC-5 cells) was over 100 µg/mL and the CC50 (Vero cells) was 496 µM. For the same compound, the “CC50 Vero” value (Vero cells) was 305.6 ± 1.4 µg/mL, the “SI MRC-5” value (Zika virus [3]; ratio of CC50 (MRC-5) to EC50) was over 0.7 and the “SI Vero” value (Zika virus [3]) was 2.0.
